# Test results reported in patent publication US20220305121A1, “N-ARYL SULFONAMIDE DERIVATIVES AS VACCINE ADJUVANT” (The Regents of the University of California, priority 2019, published 2022).
# “Also recorded” adds a separate entry of the source.
# What was measured:
# Type in all cases: cell-based
# NF-κB = test: Measurement of NF-κB activation using THP1-Blue NF-κB cells (SEAP reporter, LPS as primary stimulus); settings: compound 5 μM + LPS, 20 hour incubation; two point normalized: compound 1 + LPS = 200%, LPS = 100%; mean
# Method: (§1) THP1-Blue™ NF-κB cells were plated in 96-well plates at 10^5 cells/well in 100 μl RPMI supplemented with 10% fetal bovine serum (FBS, Omega Scientific, Inc., Tarzana, Calif.), 100 U/mL penicillin, 100 μg/ml streptomycin (Thermo Fisher Scientific) and Normocin (Invivogen). LPS was prepared in assay medium at a concentration of 20 μg/mL. Tested compounds were dissolved in DMSO at 1 mM as a stock solution and were further diluted in the LPS solution to a final concentration of 10 μM. 100 μL of this solution was then transferred to the plated cells to obtain a final concentration of LPS at 10 μg/mL and compound at 5 μM ([…]). The culture supernatants were harvested after a 20 hour incubation period, SEAP activity in the culture supernatants was determined by a colorimetric assay using QuantiBlue (Invivogen). Plate absorbance was read at 630 nm using a Tecan Infinite M200 plate reader (Männedorf, Switzerland). The SEAP concentration was directly proportional to NF-κB activity, which was 2-point normalized to yield activity of compound 1+LPS as 200% and activity for LPS as 100%.
# (§2) Measurement of NF-κB Activation Using THP1-Blue NF-κB Cells. THP1-Blue NF-κB cells were plated in 96-well plates at 10^5 cells/well in 100 μL of RPMI supplemented with 10% fetal bovine serum (FBS, Omega Scientific, Inc., Tarzana, Calif.), 100 U/mL penicillin, 100 μg/mL streptomycin (Thermo Fisher Scientific), and Normocin (Invivogen). LPS was prepared in assay medium at a concentration of 20 μg/mL. Tested compounds were dissolved in DMSO at 1 mM as a stock solution and were further diluted in the LPS solution to a final concentration of 10 μM. 100 μL of this solution was then transferred to the plated cells to obtain a final concentration of LPS at 10 μg/mL and compound at 5 μM ([…]). The culture supernatants were harvested after a 20 hours incubation period. SEAP activity in the culture supernatants was determined by a colorimetric assay using QuantiBlue (Invivogen). Plate absorbance was read at 630 nm using a Tecan Infinite M200 plate reader (Mannedorf, Switzerland). The SEAP concentration was directly proportional to NF-κB activity, which was two-point normalized to yield activity of compound 1+LPS as 200% and activity for LPS as 100%.
# ISRE = test: Measurement of ISRE activity in ISRE-bla THP-1 cells (FRET, IFN-α as primary stimulus); settings: for activity at 5 µM: Homo sapiens, THP-1, read-out: ISRE % Activation
# Method: (§3) ISRE-bla THP-1 cells were plated in 96-well plates at 5×10^4 cells/well in 50 μl RPMI supplemented with 10% dialyzed FBS (Atlanta Biologicals, Inc., GA), 0.1 mM nonessential amino acids, 1 mM sodium pyruvate, 100 U/mL penicillin and 100 μg/ml streptomycin. Type I IFN-α (R&D Systems, #11200-2) solution was prepared in assay medium at a concentration of 200 U/mL Tested compounds were dissolved in DMSO at 1 mM and were further diluted in the IFN-α solution to a final concentration of 10 μM. 50 μL of this solution was then transferred to the plated cells to obtain a final concentration of IFN-α at 100 U/mL and compound at 5 μM ([…]), The cells were incubated for 16 hours, after which 20 μL of 6×LiveBLAzer™ FRET B/G Substrate (CCF4-AM) mixture (prepared according to the manufacturer's instructions) was added to each well, Plates were incubated at room temperature in the dark for 3 hours. Fluorescence was measured on a Tecan Infinite M200 plate reader at an excitation wavelength of 405 nm, and emission wavelengths of 465 nm and 535 nm. Background values (cell free wells at the same fluorescence wavelength) were subtracted from the raw fluorescence intensity values and the emission ratios were calculated as the ratio of background subtracted fluorescence intensities at 465 nm to background subtracted fluorescence intensities at 535 nm. The ISRE activity values for these compounds were 2-point normalized to yield activity of compound 1+IFN-α as 200% and activity for IFN-α as 100%.
# Measurement of ISRE Activity in ISRE-bla THP-1 Cells. ISREbla THP-1 cells were plated in 96-well plates at 5×10^4 cells/well in 50 μL of RPMI supplemented with 10% dialyzed FBS (Atlanta Biologicals, Inc., GA), 0.1 mM nonessential amino acids, 1 mM sodium pyruvate, 100 U/mL penicillin, and 100 μg/mL streptomycin. Type I IFN-α (R&D Systems, no. 11200-2) solution was prepared in assay medium at a concentration of 200 U/mL. Tested compounds were dissolved in DMSO at 1 mM and were further diluted in the IFN-α solution to a final concentration of 10 μM. 50 μL of this solution was then transferred to the plated cells to obtain a final concentration of IFN-α at 100 U/mL and compound at 5 μM ([…]). The cells were incubated for 16 hours, after which 20 μL of 6×LiveBLAzer FRET B/G substrate (CCF4-AM) mixture (prepared according to the manufacturer's instructions) was added to each well. Plates were incubated at room temperature in the dark for 3 hours. Fluorescence was measured on a Tecan Infinite M200 plate reader at an excitation wavelength of 405 nm and emission wavelengths of 465 and 535 nm. Background values (cell free wells at the same fluorescence wavelength) were subtracted from the raw fluorescence intensity values and the emission ratios were calculated as the ratio of background subtracted fluorescence intensities at 465 nm to background subtracted fluorescence intensities at 535 nm. The ISRE activity values for these compounds were two-point normalized to yield activity of compound 1+IFN-α as 200% and activity for IFN-α as 100%.
# THP-1 cells = test: Cell viability assay (MTT); settings: compound 5 μM, 18 hours incubation; normalized to DMSO as 100%; mean
# Method: THP-1 cells were plated in 96-well plates (10^5 cells/well) in 100 μL RPMI supplemented with 10% FBS, 100 U/mL penicillin and 100 μg/ml streptomycin. Compounds were dissolved in DMSO at 1 mM stock solution and were further diluted to 10 μM in the assay medium. 100 μL of this solution was added to the cells to obtain a final compound concentration of 5 μM ([…]). After 18 hours incubation, a solution of MTT in assay media (0.5 mg/mL) was added to each well and further incubated for 4 to 6 hours, followed by addition of cell lysis buffer (15% w/v SDS and 0.12% v/v 12N HCl aqueous solution), incubated overnight, and then absorbance measured at 570 nm using 650 nm as reference using Tecan Infinite M200 plate reader.
# Cell Viability Assay. THP-1 cells were plated in 96-well plates (10^5 cells/well) in 100 μL RPMI supplemented with 10% FBS, 100 U/mL penicillin, and 100 μg/mL streptomycin. Compounds were dissolved in DMSO at 1 mM stock solution and were further diluted to 10 μM in the assay medium. 100 μL of this solution was added to the cells to obtain a final compound concentration of 5 μM ([…]). After 18 h incubation, a solution of MTT in assay media (0.5 mg/mL) was added to each well and further incubated for 4-6 hours, followed by addition of cell lysis buffer (15% w/v SDS and 0.12% v/v 12 N HCl aqueous solution), incubation overnight, and then absorbance was measured at 570 nm using 650 nm as reference using Tecan Infinite M200 plate reader.
# NF-κB and ISRE = NF-κB and ISRE reporter assays (primary screens), statements in words for both assays; settings: with LPS or IFN-α as primary stimulus; compared to compound 1
# Method: as §1, §3, §2
# Measurement of ISRE Activity in ISRE-bla THP-1 Cells. […]
# [1] = compound 5 μM + IFN-α 100 U/mL, 16 hours, two point normalized: compound 1 + IFN-α = 200%, IFN-α = 100%, mean
Compound,activity at 5 µM (NF-κB) [%],activity at 5 µM (ISRE; [1]) [%],MTT % Viability (THP-1 cells) [%],activity in NF-κB and ISRE assays (in words) (NF-κB and ISRE),ISRE activity (in words) (ISRE; with IFN-α),NF-κB % Activation (NF-κB) [%],ISRE % Activation (ISRE; [1]) [%]
"CCOc1ccc(S(=O)(=O)Nc2ccc(Cl)c(OC)c2)cc1 [Compound 4, N-(4-chloro-3-methoxyphenyl)-4-ethoxybenzenesulfonamide]",126,99,83.7,complete loss of activity; also recorded: significant loss of activity,–,–,–
"CCOc1ccc(S(=O)(=O)Nc2ccc(Cl)cc2OC)cc1 [Compound 5, N-(4-chloro-2-methoxyphenyl)-4-ethoxybenzenesulfonamide]",141,109,78.3,complete loss of activity; also recorded: significant loss of activity,–,–,–
"CCOc1ccc(S(=O)(=O)Nc2cc(OC)ccc2OC)cc1 [Compound 6, N-(2,5-dimethoxyphenyl)-4-ethoxybenzenesulfonamide]",116,96,73.1,retained activity,–,–,–
"CCOc1ccc(S(=O)(=O)Nc2cc(OC)c(Br)cc2OC)cc1 [Compound 7, N-(4-bromo-2,5-dimethoxyphenyl)-4-ethoxybenzenesulfonamide]",176,235,68.8,retained activity,slightly skewed ISRE activity,–,–
"COc1cc(NS(=O)(=O)c2ccc(C(=O)O)cc2)c(OC)cc1Cl [Compound 28, 4-(N-(4-chloro-2,5-dimethoxyphenyl)sulfamoyl)benzoic acid]",–,–,98.2,lost activity,–,–,–
"CCOc1ccc(NS(=O)(=O)c2cc(OC)c(Cl)cc2OC)cc1 [Compound 31, 4-Chloro-N-(4-ethoxyphenyl)-2,5-dimethoxybenzenesulfonamide]",–,–,–,inactivity,–,–,–
"C#CCCN(c1cc(OC)c(Cl)cc1OC)S(=O)(=O)c1ccc(OCC)cc1 [Compound 43, N-(but-3-yn-1-yl)-N-(4-chloro-2,5-dimethoxyphenyl)-4-ethoxybenzenesulfonamide]",206,201,70.1,–,–,–,–
"C#CCCCN(c1cc(OC)c(Cl)cc1OC)S(=O)(=O)c1ccc(OCC)cc1 [Compound 44, N-(4-chloro-2,5-dimethoxyphenyl)-4-ethoxy-N-(pent-4-yn-1-yl) benzenesulfonamide]",–,–,70.7,–,–,182,184
"CCOC(=O)CCCN(c1cc(OC)c(Cl)cc1OC)S(=O)(=O)c1ccc(OCC)cc1 [Compound 50, Ethyl 4-((N-(4-chloro-2,5-dimethoxyphenyl)-4-ethoxyphenyl)sulfonamido)butanoate]",199,199,80.1,–,–,–,–
"CCOc1ccc(S(=O)(=O)N(CCCC(=O)O)c2cc(OC)c(Cl)cc2OC)cc1 [Compound 53, 4-((N-(4-chloro-2,5-dimethoxyphenyl)-4-ethoxyphenyl)sulfonamido)butanoic acid]",230,151,73.4,–,–,–,–
"CCOc1ccc(S(=O)(=O)Nc2cc(OC)c(N=[N+]=[N-])cc2OC)cc1 [Compound 59, N-(4-azido-2,5-dimethoxyphenyl)-4-ethoxybenzenesulfonamide]",–,–,76.6,potent,–,–,–
"COc1ccc(S(=O)(=O)Nc2cc(OC)c(Cl)cc2OC)cc1N [Compound 60, 3-Amino-N-(4-chloro-2,5-dimethoxyphenyl)-4-methoxybenzenesulfonamide]",–,–,77.3,resurgence of activity,–,–,–
"COc1cc(NS(=O)(=O)c2ccc(OC)c(N=[N+]=[N-])c2)c(OC)cc1Cl [Compound 61, 3-Azido-N-(4-chloro-2,5-dimethoxyphenyl)-4-methoxybenzenesulfonamide]",–,–,87.2,inactive,–,–,–
